Molecular target: Mitogen-activated protein kinase kinase kinase kinase 1 (Homo sapiens, UniProt Q92918)
Assay: HPK1-SLP76 TR-FRET ASSAY
Experimental: Compounds are serially diluted (3-fold in 100% DMSO) across a 384-well polypropylene source plated from column 3 to column 12 and column 13 to column 22, to yield 10 concentration dose responses for each test compound. Columns 1, 2, 23 and 24 contain either only DMSO or a pharmacological known control inhibitor. […] Enzyme, Substrate and Stop/Detection solutions are prepared in assay buffer. […] Kinase reaction is initiated with addition of 2.5 μL of substrate solution (ATP 10uM and SLP7610 nM Final) and allowed to proceed for 60 minutes. […] Plates are incubated at room temperature for 30 minutes. Reactions are initiated by addition of 2.5 μL of 3x substrate solution (10 nM SLP76 and 10 uM ATP FInal) using BioRaptr. Plates are incubated at room temperature for one hour.

Mitogen-activated protein kinase kinase kinase kinase 1, sequence (Q92918 whole entry): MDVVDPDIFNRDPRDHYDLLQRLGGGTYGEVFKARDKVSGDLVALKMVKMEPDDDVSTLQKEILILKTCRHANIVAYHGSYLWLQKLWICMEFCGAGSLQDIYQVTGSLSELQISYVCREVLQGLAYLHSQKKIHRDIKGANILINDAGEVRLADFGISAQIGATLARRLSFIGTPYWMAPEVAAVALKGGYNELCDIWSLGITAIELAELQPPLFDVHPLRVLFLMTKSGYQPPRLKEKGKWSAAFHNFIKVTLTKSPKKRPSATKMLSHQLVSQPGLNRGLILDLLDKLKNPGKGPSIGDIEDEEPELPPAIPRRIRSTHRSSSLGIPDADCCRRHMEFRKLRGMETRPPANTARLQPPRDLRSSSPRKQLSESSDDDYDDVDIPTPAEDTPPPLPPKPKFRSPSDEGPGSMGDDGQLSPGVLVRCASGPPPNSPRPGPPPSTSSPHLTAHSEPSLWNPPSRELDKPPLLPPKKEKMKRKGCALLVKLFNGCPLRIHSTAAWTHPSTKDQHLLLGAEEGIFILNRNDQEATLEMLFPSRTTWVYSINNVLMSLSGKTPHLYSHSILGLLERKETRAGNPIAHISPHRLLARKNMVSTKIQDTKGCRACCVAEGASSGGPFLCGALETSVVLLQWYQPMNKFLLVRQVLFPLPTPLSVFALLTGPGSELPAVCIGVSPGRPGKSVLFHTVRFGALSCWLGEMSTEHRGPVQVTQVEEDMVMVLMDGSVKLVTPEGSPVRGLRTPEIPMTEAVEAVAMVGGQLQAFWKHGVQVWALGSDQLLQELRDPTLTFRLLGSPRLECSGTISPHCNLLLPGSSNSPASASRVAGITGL

Row | SMILES | IC50 [nM]
1 | COc1cc2c(cc1Nc1ncc(C(N)=O)c(Nc3ccc(C)cc3C3CC3)n1)CN(C)CC2 [WO2022098809, Example 4-26] | 0.17
2 | CCc1cc(C)ccc1Nc1nc(Nc2cc3c(cc2OC)CCN(C)C3)ncc1C(N)=O [WO2022098809, Example 4-27] | 0.08
3 | COc1cc2c(cc1Nc1ncc(C(N)=O)c(Nc3ccc(C)cc3C(C)(C)C)n1)CN(C)CC2 [WO2022098809, Example 4-28] | 0.26
4 | Cc1cc(F)c(Nc2nc(Nc3cc4c(cc3F)CCN(C)C4)ncc2C(N)=O)c(C(F)(F)F)c1 [WO2022098809, Example 4-29] | 0.2
5 | COc1cc2c(cc1Nc1ncc(C(N)=O)c(Nc3c(F)cccc3CC(F)F)n1)CN(C)CC2 [WO2022098809, Example 4-31] | 0.2
6 | CN1CCc2cc(F)c(Nc3ncc(C(N)=O)c(Nc4c(F)ccc5c4OC(C)(C)C5)n3)cc2C1 [WO2022098809, Example 4-32] | 1.13
7 | Cc1cccc(F)c1Nc1nc(Nc2c(C)nn(C)c2C)ncc1C(N)=O [WO2022098809, Example 4-35] | 158

Reference: BindingDB's records for patent WO2022098809 (Merck Sharp &Amp, 2022)
